Where “and” joins values, the source holds several entries; their conditions need not be identical. Equal values may be shown once. Entries after “also recorded” stand apart in the source; their conditions may differ. Read-outs that look alike come from different tables or passages of the source.
Columns and labels:
[1] = Pharmacokinetic experiments in rats (IV, oral suspension, oral solution); format: in vivo; details: rat; for bioavailability: versus mean IV AUCINF, adjusted for dose
Procedure: The oral suspension formulation was prepared by suspending the test article in 5% PEG-200/95% of a 0.5% solution of methylcellulose. The concentration of the test article was such that a dosing volume of 10 mL/kg delivered the intended dose level. The oral solution formulations of NVX-144 and NVX-412 were prepared by dissolving the test article in 10% by volume dimethyl acetamide, followed by 60% by volume PEG-400, and then adding slowly a solution of 30% Captisol® in 50 mM lactic acid to provide the remaining 30% of volume. The concentration of the test article was such that a dosing volume of 10 mL/kg delivered the intended dose level. The IV formulation of NVX-412 was prepared by dissolving the test article in 10% by volume dimethyl acetamide, followed by 10% by volume PEG-400, and then adding slowly a solution of 10% Captisol® in 50 mM lactic acid to provide the remaining 80% of volume. The concentration of the test articles was such that a dosing volume of 2.5 mL/kg delivered the intended dose level. The doses administered were based on the body weight of each animal taken shortly before dosing. The formulations were used immediately after preparation.
A total of 15 rats were assigned to the study. Five groups of three male rats each comprised the study. Each group was treated once by oral gavage or intravenous injection via the tail vein as specified in Table 3 below.
The animals were fasted overnight prior to dosing and the feed returned approximately 2 hours post-dosing. The dose for each animal was based on the most recent body weight. Oral doses were administered by gavage. Animals received 10 mL/kg per single oral dose. Intravenous doses were administered by tail vein injection. The dose for each animal was based on the most recent body weight. Animals were dosed at 2.5 mL/kg per single intravenous dose.
Blood was collected from the animals in Groups 1 through 5 for pharmacokinetic analysis. Approximately 0.3 mL of blood was collected in potassium EDTA tubes via the orbital plexus at four time points (30 minutes, 1 hour, 4 hours, and 8 hours post-dose) from each rat treated by the oral route, and the blood samples were processed to prepare plasma. Blood was collected at four time points (5 minutes, 30 minutes, 1 hour, and 2 hours post-dose) from each rat treated by the intravenous route, and the blood samples were processed to prepare plasma. Animals were terminated (without necropsy) following their final sample collection.
The whole blood samples were centrifuged (˜1500×g) for a minimum of 10 minutes in a refrigerated centrifuge (set at ˜5° C.). Plasma was prepared and transferred within 30 minutes of blood collection/centrifugation to appropriately labeled tubes. The tubes were then frozen and stored in the dark at ≦−70° C. until analysis. The plasma samples were analyzed by LC-MS/MS to determine the plasma concentrations of NVX-144 and NVX-412. Pharmacokinetic analysis of the plasma concentration data was conducted using non-compartmental analysis with WinNonlin Version 4.1.

[2] = Salt formation experiments / physical characteristics of solid forms; format: physicochemical; details: suitable for pharmaceutical formulation
Procedure: Thus, a series of experiments was conducted to assess the preparation of NVX-144 salts of acids other than hydrochloric acid as possible novel compounds better suited to pharmaceutical preparations. […] As expected, NVX-144 base readily formed salts with strong organic acids.
Although oxalic acid co-crystals are rare, Trask et al. have reported a co-crystal of caffeine with oxalic acid (see Trask et al., “Pharmaceutical Cocrystallization: Engineering a Remedy for Caffeine Hydration,” Crystal Growth & Design, 5, 1013-21 (2005)).
Thus NVX-144 would not be expected to form a salt with oxalic acid, a relatively strong dicarboxylic acid.

[3] = male, plasma, po, 20 mg/kg, Group 5, PO-Solution 20 mg/kg, individual animals
[4] = Group 3, PO-Suspension 20 mg/kg, Mean N=2
[5] = Group 3, PO-Suspension 20 mg/kg, individual animals
[6] = Group 5, PO-Solution 20 mg/kg, Mean N=3
[7] = Group 5, PO-Solution 20 mg/kg, individual animals
[8] = IV 5 mg/kg, individual animals, 5 mg/kg

AUC [1, 3]: 2390 ng·h/mL
AUC(0-inf) [1, 3]: 2400 ng·h/mL
Cmax ([1]; male, plasma, po, 20 mg/kg, Group 5, PO-Solution 20 mg/kg, individual animals, read-out: Cmax): 732 ng/mL
half-life ([1]; male, plasma, po, 20 mg/kg, Group 5, PO-Solution 20 mg/kg, individual animals, read-out: T ½ (converted)): 1.18 h
Tmax ([1]; male, plasma, po, 20 mg/kg, Group 5, PO-Solution 20 mg/kg, individual animals, read-out: Tmax): 0.5 to 1 h
bioavailability ([1]; male, plasma, po, 20 mg/kg, Group 5, PO-Solution 20 mg/kg, individual animals, read-out: Bioavailability): 45.7%
plasma concentration ([1]; Group 3, PO-Suspension 20 mg/kg, 0.5 hr, individual animals): 386.99 ng/mL and 573.34 ng/mL
plasma concentration ([1]; Group 3, PO-Suspension 20 mg/kg, 1 hr, individual animals): 464.23 ng/mL and 584.12 ng/mL
plasma concentration ([1]; Group 3, PO-Suspension 20 mg/kg, 4 hr, individual animals): 181.80 ng/mL and 249.34 ng/mL
AUC % Extrap [1, 4]: 0.68%
AUCINF [1, 4]: 2306.62 ng·h/mL
T ½ [1, 4]: 1.15 h
Cmax ([1]; Group 3, PO-Suspension 20 mg/kg, Mean N=3): 524.61 ng/mL
AUC % Extrap [1, 5]: 1.00% and 0.36%
AUCINF [1, 5]: 2200.54 ng·h/mL
AUCall [1, 5]: 1642.21 ng·h/mL and 2192.52 ng·h/mL
Cmax [1, 5]: 464.23 ng/mL and 584.12 ng/mL
T ½ [1, 5]: 1.02 h
bioavailability [1, 5]: 41.9%
plasma concentration ([1]; Group 5, PO-Solution 20 mg/kg, 0.5 hr, individual animals): 635.82 ng/mL and 509.37 ng/mL
plasma concentration ([1]; Group 5, PO-Solution 20 mg/kg, 1 hr, individual animals): 686.88 ng/mL and 489.07 ng/mL
plasma concentration ([1]; Group 5, PO-Solution 20 mg/kg, 4 hr, individual animals): 171.97 ng/mL and 298.24 ng/mL
AUC % Extrap [1, 6]: 1.73%
Cmax [1, 6]: 642.71 ng/mL
T ½ [1, 6]: 1.37 h
AUC % Extrap [1, 7]: 0.61% and 0.34% and 4.24%
AUCINF [1, 7]: 2139.39 ng·h/mL and 2322.68 ng·h/mL
AUCall [1, 7]: 2132.13 ng·h/mL and 2224.16 ng·h/mL
Cmax [1, 7]: 686.89 ng/mL and 509.37 ng/mL
T ½ [1, 7]: 0.98 h and 1.96 h
Tmax [1, 7]: 0.5 h
bioavailability [1, 7]: 40.7% and 44.2%
plasma concentration ([1]; IV 5 mg/kg, 0.083 h, individual animals, 5 mg/kg): 1716.72 ng/mL and 2001.77 ng/mL
plasma concentration ([1]; IV 5 mg/kg, 0.5 h, individual animals, 5 mg/kg): 481.82 ng/mL and 461.19 ng/mL
plasma concentration ([1]; IV 5 mg/kg, 1 h, individual animals, 5 mg/kg): 278.84 ng/mL and 253.02 ng/mL
plasma concentration ([1]; IV 5 mg/kg, 2 h, individual animals, 5 mg/kg): 185.19 ng/mL and 143.93 ng/mL
AUC % Extrap ([1]; IV 5 mg/kg, Mean of 3): 18.74%
AUCINF ([1]; IV 5 mg/kg, Mean of 3, 5 mg/kg): 1314.5 ng·h/mL
Cl ([1]; IV 5 mg/kg, Mean of 3, 5 mg/kg): 63.43 mL/min/kg and 63.4273 mL/min/kg
Cmax ([1]; IV 5 mg/kg, Mean of 3, 5 mg/kg): 1842.5 ng/mL
T ½ ([1]; IV 5 mg/kg, Mean of 3, 5 mg/kg): 1.03 h
Vss ([1]; IV 5 mg/kg, Mean of 3, 5 mg/kg): 3.98512 L/kg
AUC % Extrap [1, 8]: 18.44% and 22.68% and 15.1%
AUCINF [1, 8]: 1349.72 ng·h/mL and 1277.84 ng·h/mL
AUCall [1, 8]: 1043.56 ng·h/mL and 1084.89 ng·h/mL
Cl [1, 8]: 61.7413 mL/min/kg and 65.2145 mL/min/kg
Cmax [1, 8]: 1716.7 ng/mL and 2001.8 ng/mL
T ½ [1, 8]: 1.15 h and 0.93 h
Vss [1, 8]: 4.55297 L/kg and 3.44635 L/kg
oral absorption ([1]; administered as a solution or suspension): moderate
difference in oral absorption between NVX-412 and NVX-144 ([1]; dosed as a solution): no significant difference
hydrate formation / stability [2]: forms stable mono- and di-hydrates
SMILES: O=C(NNc1nc2cc(F)ccc2n2cccc12)c1cnccn1.O=C(O)C(=O)O [NVX-412, N′-(7-fluoropyrrolo[1,2a]quinoxalin-4-yl)pyrazine-2-carbohydrazide oxalic acid co-crystal]
plasma concentration ([1]; Group 3, PO-Suspension 20 mg/kg, 8 hr, individual animals): 13.07 ng/mL and BLQ (BLQ = Below the Limit of Quantitation <5 ng/mL) and 5.48 ng/mL
plasma concentration ([1]; Group 5, PO-Solution 20 mg/kg, 8 hr, individual animals): 8.53 ng/mL and 5.14 ng/mL and 34.89 ng/mL
oral absorption / bioavailability of NVX-412 over NVX-144 free base ([1]; dosed as a suspension): more bioavailable; also recorded: slight improvement

Source: patent publication US8058437B2, “(Pyrroloquinoxalinyl) pyrazinecarbohydrazide-oxalic acid co-crystal for treatment of cancer and other diseases” (Novelix Pharmaceuticals, Inc., priority 2008, dated 2011)
